Assay results published in patent US6380207B2, “Glucocortiocoid-selective antiinflammatory agents” (Abbott Laboratories, priority 1998, dated 2002).

Columns and labels:
[1] = biological target: T1, human progesterone receptor-A [PRA] isoform (Homo sapiens, UniProt P06401); experiment: Radioligand binding with human progesterone receptor cytosol ([3H]-progesterone); settings: [3H]Prog competition, 4° C. overnight, Cheng-Prusoff, read-out: Ki (nM) PR
T1 construct: purchased Ligand Pharmaceuticals (San Diego, Calif.); host or cells: insect SF21 cells (baculovirus)
T1 sequence (P06401 1-769 isoform P06401-2): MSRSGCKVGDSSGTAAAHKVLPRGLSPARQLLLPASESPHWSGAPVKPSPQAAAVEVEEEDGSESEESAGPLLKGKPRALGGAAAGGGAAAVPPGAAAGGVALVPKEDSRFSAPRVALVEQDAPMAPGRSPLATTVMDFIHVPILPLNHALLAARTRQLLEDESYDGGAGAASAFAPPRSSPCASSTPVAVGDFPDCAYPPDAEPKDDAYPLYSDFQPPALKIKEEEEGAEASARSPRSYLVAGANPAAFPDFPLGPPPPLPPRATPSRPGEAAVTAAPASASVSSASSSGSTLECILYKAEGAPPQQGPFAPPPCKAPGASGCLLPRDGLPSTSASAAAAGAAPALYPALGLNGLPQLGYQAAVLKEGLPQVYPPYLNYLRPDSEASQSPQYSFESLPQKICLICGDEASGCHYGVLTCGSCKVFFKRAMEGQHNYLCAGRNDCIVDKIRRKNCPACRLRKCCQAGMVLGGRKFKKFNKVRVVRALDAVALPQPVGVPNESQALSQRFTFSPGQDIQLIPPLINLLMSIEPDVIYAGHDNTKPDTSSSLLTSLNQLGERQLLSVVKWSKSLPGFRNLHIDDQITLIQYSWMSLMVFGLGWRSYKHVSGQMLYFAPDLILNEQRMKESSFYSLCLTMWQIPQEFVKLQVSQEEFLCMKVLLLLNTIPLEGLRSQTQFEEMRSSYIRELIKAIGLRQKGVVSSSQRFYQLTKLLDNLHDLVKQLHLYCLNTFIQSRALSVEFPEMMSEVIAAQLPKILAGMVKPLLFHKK
Excerpt: (§1) The procedure described in Anal. Biochem. 1970, 37, 244-252, hereby incorporated by reference, was used. Briefly, cytosol preparations of human glucocorticoid receptor-α [GRX] isoform and human progesterone receptor-A [PRA] isoform were obtained from Ligand Pharmaceuticals (San Diego, Calif.). Both receptor cDNAs were cloned into baculovirus expression vectors and expressed in insect SF21 cells. [^3H]-dexamethasone (Dex, specific activity 82-86 Ci/mmole) and [^3H]-progesterone (Prog, specific activity 97-102 Ci/mmol) were purchased from Amersham Life Sciences (Arlington Heights, Ill.). Glass fiber type C multiscreen MAFC NOB plates were from Millipore (Burlington, Mass.). Hydroxyapatide Bio-Gel HTP gel was from Bio-Rad Laboratories (Hercules, Calif.). Tris(hydroxymethyl)aminomethane (Tris), ethylenediaminetetraacetic acid (EDTA), glycerol, dithiothreitol (DTT) and sodium moylybdate were obtained from Sigma Chemicals (St. Louis, Mo.). Microscint-20 scintillation fluid was from Packard Instrument (Meriden, Conn.).
(§2) Stock solutions (32 mM) of compounds were prepared in dimethylsulfoxide (DMSO), and 50× solutions of test compounds were prepared from the 32 mM solution with a 50:50 mixture of DMSO/ethanol. The 50× solution was then diluted with binding buffer that contained 10 mM Tri-HCl, 1.5 mM EDTA, 10% glycerol, 1 mM DTT, 20 mM sodium molybdate, pH 7.5 @ 4° C. 1% DMSO/ethanol was present in the binding assay.
For PR binding assays, [^3H]Prog (˜36,000 dpm (˜0.8 nM)), PRA cytosol (˜40 μg protein), test compounds and binding buffer were mixed in a total volume of 200 μL and incubated at 4° C. at overnight in a plate shaker. Specific binding was defined as the difference between binding of [^3H]Prog in the absence and in the presence of 3 μM unlabelled Prog.
(§3) After an overnight incubation, 50 μL of hydroxyapatite (25% weight/volume) slurry were added to each well and plates were incubated for 10 min at […] in a plate shaker. Plates were suctioned with a Millipore vacuum manifold and each well was rinsed with 300 μL of ice-cold binding buffer. A 250 μL aliquot of Packard Microscint-20 was added to each well and the wells were shaken at room temperature for 20 minutes. The amount of radioactivity was determined with a Packard TopCount plate reader.
(§4) The concentration of test compounds that inhibited 50% of specific binding (IC50) was determined from a Hill analysis of the competitive binding experiments. The Ki of test compounds was determined using the Cheng-Prusoff equation Ki=IC50/(1+[L*]/[KL]) where L* is the concentration of radioligand and KL is the dissociation constant of the radioligand determined from saturation analysis. For GRX, KL was ˜1.5 nM, and for PRA, KL was ˜4.5 nM.

[2] = biological target: T2, human glucocorticoid receptor-α [GRX] isoform (Homo sapiens, UniProt P04150); experiment: Radioligand binding with human glucocorticoid receptor cytosol ([3H]-dexamethasone); settings: [3H]-Dex competition, 4° C. overnight, Cheng-Prusoff, read-out: Ki (nM) GR
T2 construct: purchased Ligand Pharmaceuticals (San Diego, Calif.); host or cells: insect SF21 cells (baculovirus)
T2 sequence (P04150 1-777): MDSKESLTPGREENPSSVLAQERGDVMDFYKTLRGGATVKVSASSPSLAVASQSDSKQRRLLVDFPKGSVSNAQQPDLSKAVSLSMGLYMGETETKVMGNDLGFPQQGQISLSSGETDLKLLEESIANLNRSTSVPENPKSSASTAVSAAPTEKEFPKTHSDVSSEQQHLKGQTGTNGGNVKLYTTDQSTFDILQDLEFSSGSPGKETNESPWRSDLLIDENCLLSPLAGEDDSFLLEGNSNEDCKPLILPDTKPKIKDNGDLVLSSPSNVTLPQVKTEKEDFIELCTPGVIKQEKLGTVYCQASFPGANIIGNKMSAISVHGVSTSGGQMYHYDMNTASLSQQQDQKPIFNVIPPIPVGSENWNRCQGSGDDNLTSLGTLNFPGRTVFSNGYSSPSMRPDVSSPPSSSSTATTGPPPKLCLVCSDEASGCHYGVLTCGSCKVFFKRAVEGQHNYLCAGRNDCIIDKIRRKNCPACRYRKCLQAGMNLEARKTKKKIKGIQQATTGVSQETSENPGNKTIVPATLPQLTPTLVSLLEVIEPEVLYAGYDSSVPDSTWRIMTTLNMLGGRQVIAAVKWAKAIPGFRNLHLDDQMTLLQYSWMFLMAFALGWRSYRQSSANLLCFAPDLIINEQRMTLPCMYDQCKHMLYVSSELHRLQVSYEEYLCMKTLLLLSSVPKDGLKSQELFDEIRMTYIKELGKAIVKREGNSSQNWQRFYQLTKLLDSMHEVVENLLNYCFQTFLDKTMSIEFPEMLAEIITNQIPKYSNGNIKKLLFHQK
Excerpt: as §1, §2
GRX and PRA binding reactions were performed in Millipore Multiscreen plates. For GR binding assays, [^3H]-Dex (˜35,000 dpm (˜0.9 nM)), GRX cytosol (˜35 μg protein), test compounds and binding buffer were mixed in a total volume of 200 μL and incubated at 4° C. overnight in a plate shaker. Specific binding was defined as the difference between binding of [^3H]Dex in the absence and in the presence of 1 μM unlabelled Dex.
as §3, §4

Ki [1] | Ki [2] | melting point | SMILES
10000 nM | 230 nM |  | COc1cc2c(c3c1-c1ccccc1OC3c1ccccc1)C(C)=CC(C)(C)N2 (stereo not drawn) [Example 1, 2,5-dihydro-11-methoxy-5-phenyl-2,2,4-trimethyl-1H-[1]benzopyrano[3,4-f]quinoline]
14000 nM | 640 nM | 84 to 86 °C | C=CCC1Oc2ccccc2-c2c(OC)cc3c(c21)C(C)=CC(C)(C)N3 (stereo not drawn) [Example 2, 2,5-dihydro-11-methoxy-5-(2-propenyl)-2,2,4-trimethyl-1H-[1]benzopyrano[3,4-f]quinoline]
10000 nM | 200 nM |  | COc1cc2c(c3c1-c1ccccc1OC3c1cc(Cl)cc(Cl)c1)C(C)=CC(C)(C)N2 (stereo not drawn) [Example 3, 2,5-dihydro-11-methoxy-5-(3,5-dichlorophenyl)-2,2,4-trimethyl-1H-[1]benzopyrano[3,4-f]quinoline]
8600 nM | 270 nM |  | C=C1CC(C)(C)Nc2cc(OC)c3c(c21)C(c1cc(Cl)cc(Cl)c1)Oc1ccccc1-3 (stereo not drawn) [Example 4, 2,3,5-trihydro-11-methoxy-5-(3,5-dichlorophenyl)-2,2,4-dimethyl-4-methylene-1H-[1]benzopyrano[3,4-f]quinoline]
